From ChEMBL document CHEMBL5154904, “Discovery and Structural Basis of the Selectivity of Potent Cyclic Peptide Inhibitors of MAGE-A4” (J Med Chem, 2022)
Changes are numbered by the printed parent chain. Calls of active or inactive are those of the source. No cut-off for these calls is given here. Positions of bridges follow the written chain, without caps; N, C: chain ends. Residues, ends and D or L forms follow the SMILES beside them.

How the values were obtained:
Homo sapiens [1] = species: Homo sapiens; experiment: Inhibition of Eu-W1024 streptavidin-labeled 6 xHis-tagged MAGEA4-MH domain I205A mutant (unknown origin) expressed in Escherichia coli BL21-(DE3) interaction with Ulight-labeled GST-tagged RAD18 (unknown origin) (267 to 402 residues) at 1 uM by LANCE TR-FRET assay
[2] = molecular target: T1, Melanoma-associated antigen 4 (Homo sapiens) (UniProt P43358); experiment: Binding affinity to recombinant N-terminal His-tagged MAGEA4-MH domain (unknown origin) expressed in Escherichia coli BL21-(DE3) assessed as protection in trypsin-induced MAGEA4 protein degradation incubated for 1 hr by proteolysis based SDS-PAGE analysis
T1 sequence (whole entry): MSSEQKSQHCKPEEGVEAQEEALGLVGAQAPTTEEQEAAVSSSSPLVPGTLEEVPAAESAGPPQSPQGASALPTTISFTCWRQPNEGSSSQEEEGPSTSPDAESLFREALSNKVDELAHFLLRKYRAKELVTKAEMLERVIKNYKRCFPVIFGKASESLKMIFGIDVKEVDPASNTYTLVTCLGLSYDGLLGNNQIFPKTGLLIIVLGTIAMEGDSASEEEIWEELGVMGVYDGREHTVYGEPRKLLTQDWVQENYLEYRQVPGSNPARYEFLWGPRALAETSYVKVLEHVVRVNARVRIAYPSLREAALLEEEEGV

[3] = test system: T2, Melanoma-associated antigen 4 (Homo sapiens), P43358 [V291A]; experiment: Binding affinity to recombinant N-terminal His-tagged MAGEA4-MH domain V291A mutant (unknown origin) expressed in Escherichia coli BL21-(DE3) assessed as increase in thermal stability by SYPRO orange dye based differential scanning fluorimetry; conditions: dose <= 10.0 µM
T2 sequence (whole entry): T1 sequence (whole entry) with V291A

Homo sapiens [4] = species: Homo sapiens; experiment: Inhibition of Eu-W1024 streptavidin-labeled 6 xHis-tagged MAGEA4-MH domain M161A mutant (unknown origin) expressed in Escherichia coli BL21-(DE3) interaction with Ulight-labeled GST-tagged RAD18 (unknown origin) (267 to 402 residues) at 1 uM by LANCE TR-FRET assay
[5] = test system: T3, Melanoma-associated antigen 4 (Homo sapiens), P43358 [M229A]; experiment: Binding affinity to recombinant N-terminal His-tagged MAGEA4-MH domain M229A mutant (unknown origin) expressed in Escherichia coli BL21-(DE3) assessed as increase in thermal stability by SYPRO orange dye based differential scanning fluorimetry; conditions: dose <= 10.0 µM
T3 sequence (whole entry): T1 sequence (whole entry) with M229A

[6] = test system: T4, Melanoma-associated antigen 4 (Homo sapiens), P43358 [R297A]; experiment: Binding affinity to recombinant N-terminal His-tagged MAGEA4-MH domain R297A mutant (unknown origin) expressed in Escherichia coli BL21-(DE3) assessed as increase in thermal stability by SYPRO orange dye based differential scanning fluorimetry; conditions: dose <= 10.0 µM
T4 sequence (whole entry): T1 sequence (whole entry) with R297A

NCI-H1299 = experiment: Inhibition of MAGEA4 in human NCI-H1299 cell lysate interaction with HA-tagged RAD18 (unknown origin) at 1 uM incubated for overnight by co-immunoprecipitation pull down assay; assay type: subcellular
[7] = test system: T5, Melanoma-associated antigen 4 (Homo sapiens), P43358 [M161A]; experiment: Binding affinity to recombinant N-terminal His-tagged MAGEA4-MH domain M161A mutant (unknown origin) expressed in Escherichia coli BL21-(DE3) assessed as increase in thermal stability by SYPRO orange dye based differential scanning fluorimetry; conditions: dose 10.0 µM
T5 sequence (whole entry): T1 sequence (whole entry) with M161A

[8] = test system: T6, Melanoma-associated antigen 4 (Homo sapiens), P43358 [R299A]; experiment: Binding affinity to recombinant N-terminal His-tagged MAGEA4-MH domain R299A mutant (unknown origin) expressed in Escherichia coli BL21-(DE3) assessed as increase in thermal stability by SYPRO orange dye based differential scanning fluorimetry; conditions: dose <= 10.0 µM
T6 sequence (whole entry): T1 sequence (whole entry) with R299A

Structure (SMILES): CC[C@H](C)[C@@H]1NC(=O)[C@H](Cc2ccc(O)cc2)NC(=O)CSC[C@@H](C(N)=O)NC(=O)[C@H](CC(N)=O)NC(=O)[C@H](Cc2cnc[nH]2)NC(=O)[C@H](Cc2ccc(O)cc2)NC(=O)[C@H](CC(=O)O)NC(=O)[C@H](Cc2ccc(O)cc2)NC(=O)[C@H](CC(C)C)NC(=O)[C@H](CCCNC(=N)N)NC1=O ({CH2CO}-YIRLYDYHNC-NH2; thioether N-10)
- inhibition (Homo sapiens [1]): Active
- Activity [2]: Active
- Tm [3]: < 3.5 °C
- inhibition (Homo sapiens [4]): Active
- Tm [5]: < 3.5 °C
- Tm [6]: < 3.5 °C
- inhibition (NCI-H1299): Active
- Tm [7]: < 3.5 °C
- Tm [8]: < 3.5 °C
